Experimental data from US8481749B2, “N-(tetrazol-5-yl)- and N-(triazol-5-yl)arylcarboxamides and their use as herbicides” (Bayer Cropscience AG, priority 2010, dated 2013).

System: Veronica persica
Assay: Pre-emergence herbicidal action against harmful plants
Assay type: in vivo
Conditions: 504 h, application rate 80 g/ha, visual assessment after 3 weeks vs untreated controls (100%=plants have died, 0%=like control), read-out: herbicidal activity in percent against Veronica persica

Structure (SMILES)	pest or weed control at 80 g/ha
CCCc1c(C(=O)Nc2nnnn2CC)ccc(Cl)c1[S+](C)[O-] (stereo not drawn) [Compound 5-510]	≥ 80%
CCn1nnnc1NC(=O)c1ccc(S(C)(=O)=O)c(OC)c1C [Compound 5-166]	≥ 80%
C#CCOc1c(S(C)(=O)=O)ccc(C(=O)Nc2nnnn2CC)c1Cl [Compound 5-676]	≥ 80%
CCn1nnnc1NC(=O)c1ccc(S(C)(=O)=O)c(SC)c1C(F)(F)F [Compound 5-597]	≥ 80%
CCn1ncnc1NC(=O)c1ccc(C(F)(F)F)c(S(C)(=O)=O)c1C [Compound 2-148]	≥ 80%
CCn1nnnc1NC(=O)c1ccc(S(=O)(=O)CC)c(SC)c1C(F)(F)F [Compound 5-598]	≥ 80%
CCn1nnnc1NC(=O)c1ccc(C)c(SC)c1Cl [Compound 5-614]	≥ 80%
CCSc1c(Cl)ccc(C(=O)Nc2nnnn2CC)c1C [Compound 5-122]	≥ 80%
CCn1nnnc1NC(=O)c1ccc(Cl)c(S(=O)(=O)CC)c1C [Compound 5-124]	≥ 80%
CCn1nnnc1NC(=O)c1ccc(S(C)(=O)=O)c(OC)c1Cl [Compound 5-276]	≥ 80%
CCn1nnnc1NC(=O)c1ccc(C#N)c(SC)c1C [Compound 5-392]	≥ 80%
CCn1nnnc1NC(=O)c1ccc(C(F)(F)F)c(S(C)(=O)=O)c1C1CC1 [Compound 5-210]	≥ 80%
